Here are results for five compounds from doi:10.1101/2024.06.25.600598v1 (biorxiv, 2024).

In general, Ki refers to the dissociation constant of the complex between target and ligand, obtained from inhibition or displacement. Broadly, the IC50 is the concentration at which inhibition is half-maximal. High values mean lower potency, low ones higher potency.

The target in assay [1] is T1, fibroblast activation protein (FAP; rhFAP, SLIN-tagged hFAP) (Homo sapiens, UniProt Q12884).
T1 sequence (Q12884 35-760): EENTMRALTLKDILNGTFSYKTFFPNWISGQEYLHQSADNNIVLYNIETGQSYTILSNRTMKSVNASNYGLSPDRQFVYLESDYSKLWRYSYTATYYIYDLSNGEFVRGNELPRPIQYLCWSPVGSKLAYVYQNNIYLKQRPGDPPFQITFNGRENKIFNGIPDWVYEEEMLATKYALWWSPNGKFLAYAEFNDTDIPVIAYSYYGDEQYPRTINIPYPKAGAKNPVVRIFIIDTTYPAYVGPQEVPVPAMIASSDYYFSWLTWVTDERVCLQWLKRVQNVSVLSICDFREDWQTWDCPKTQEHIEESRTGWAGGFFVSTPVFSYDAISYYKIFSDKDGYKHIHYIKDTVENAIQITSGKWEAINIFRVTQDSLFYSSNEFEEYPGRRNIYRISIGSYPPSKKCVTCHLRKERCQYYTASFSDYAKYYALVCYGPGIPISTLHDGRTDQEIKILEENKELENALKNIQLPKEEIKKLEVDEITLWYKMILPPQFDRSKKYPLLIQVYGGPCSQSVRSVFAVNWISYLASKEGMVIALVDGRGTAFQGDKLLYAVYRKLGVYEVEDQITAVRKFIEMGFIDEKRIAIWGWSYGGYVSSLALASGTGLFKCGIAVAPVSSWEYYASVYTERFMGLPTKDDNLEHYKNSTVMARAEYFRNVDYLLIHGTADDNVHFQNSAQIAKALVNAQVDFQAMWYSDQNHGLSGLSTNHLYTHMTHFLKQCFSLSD
As to the kind of experiment: biochemical. Format: binding.

The target of assay [2] is T1, fibroblast activation protein (FAP; rhFAP, SLIN-tagged hFAP). The conditions noted are these: 2 µM; inhibitor.
Assay [3] has the same target. As to the kind of experiment: DIANA competition with DNA-linked probe, qPCR. Format: binding.
For assay [4] the target is unchanged. As to the kind of experiment: fluorogenic AMC substrate activity assay. Format: biochemical.

For the compound `CC(C)(C)C(=O)OCOC(=O)[C@@H]1N2C(=O)[C@@H](N=CN3CCCCCC3)[C@H]2SC1(C)C` [pivmecillinam], in assay [1], the affinity corresponds to a Ki of 2.2 µM. In addition, the “Relative inhibition (%), activity assay” value in assay [2] was 45%. For `O=C1OC2(c3cc(I)c(O)c(I)c3Oc3c2cc(I)c(O)c3I)c2c(Cl)c(Cl)c(Cl)c(Cl)c21` [rose bengal] the same measures were 0.1 µM and 9%.

In assay [3], `Cc1ccc(C)c(CNC(=O)C(=O)[C@@H]2CCCN2C(=O)CNC(=O)c2ccnc3ccccc23)c1` [6f] came in with a Ki of 0.0007 ± 0.0001 µM. Consider `O=C1OC2(c3ccc(O)cc3Oc3cc(O)ccc32)c2ccccc21` [Fluorescein (sodium)], for which, in assay [4], the IC50 was more than 20 µM.

In assay [1], `C=CC1=C(C)c2cc3[nH]c(cc4nc(cc5[nH]c(cc1n2)c(C)c5CCC(=O)O)C(CCC(=O)O)=C4C)c(C)c3C=C` [protoporphyrin IX] displayed a Ki of 0.8 µM. The “Relative inhibition (%), activity assay” value in assay [2] is reported as 46%.
